From PMC6492180, “Cytome micronucleus assays with a metabolically competent human derived liver cell line (Huh6): A promising approach for routine testing of chemicals?” (Environmental and Molecular Mutagenesis, 2018)
Read-outs that look alike come from different tables or passages of the source. Marks after values point to notes of the source that are not given here.

What was measured:
[1] = test system: Huh6 cells
Method: All experiments were performed in duplicate.
3.8–4.0 × 10^5 cells per well were seeded into 6‐well plates with 3 mL of RPMI (4% FBS) for 12 hr, then dilutions of stock solutions of the diagnostic mutagens were added for different time periods (4, 24, and 48 hr). In each experimental series solvent controls were included. Subsequently, the cells were washed twice with 3.0 mL medium. […] Finally, the cells were washed and trypsinised. Afterwards the cells were washed twice with 8.0 mL RPMI and collected on slides by cytocentrifugation (600 rpm, 5 min). The slides were air dried, fixed, and stained with DiffQuick according to the instructions of the manufacturer. For each experimental point, two cultures were tested per dose. From each culture ≥1,000 BN cells were evaluated under 400‐fold magnification (Nikon Photophot‐FXA, Tokyo, Japan). At least 2,000 binucleated cells were analyzed per dose for the determination of the different nuclear anomalies (MN, NBuds, and NBs).
The experiments were performed as described in the previous chapter. The cells were exposed only to one dose of the different mutagens and were cultivated after the seeding in 6‐well plates which contained 4% or 10% FBS in RPMI, respectively.
Data were evaluated by generalized linear model with Poisson counts. Chi‐square tests for overdispersion were applied. […] P values ≤0.05 were considered statistically significant.
^150-60 000 cells were seeded in 6 well plates with 3 ml RPMI (4% FBS), subsequently different solutions of the test compound (dissolved in medium) were added. After treatment for different time periods, the cells was washed and processed as described in the Material and Method section. […] From each culture 1000 binoculated cells were evaluated. BN-MN – number of micronucleated cells; MN - total number of micronuclei; CBPI – cytokinesis-block proliferation index
^1The experiments were conducted essentially as described in the footnote of Table S1A-I. *p≤0.05

[2] = test system: HepaRG; settings: HepaRG; ref Le Hegarat et al., 2010; cited from earlier work
[3] = test system: HepG2; settings: HepG2; ref Knasmuller et al., 1999; cited from earlier work
[4] = test system: Human lymphocytes; settings: Human lymphocytes, + S9, cited from earlier work
[5] = ref IARC (2018); cited from earlier work
[6] = 10% FBS, 24 hr treatment, 50 µM
[7] = 10% FBS, 24 hr treatment, 100 µM

Cn1c(N)nc2c3cccnc3ccc21 [IQ, 2‐Amino‐3‐methyl‐3H‐imidazo[4,5‐f]quinoline]
MN effects after 24 hr (or longer) compared with 4 hr treatment (in words) ([1]; 4% FBS): more pronounced effects | BN-MN (number of micronucleated cells) ([1]; 4% FBS, 4hrs, 25 µM): 16.0 ± 2.8 ‰ | Bridges ([1]; 4% FBS, 4hrs, 25 µM): 0.5 ± 0.7 ‰ | Buds ([1]; 4% FBS, 4hrs, 25 µM): 17.5 ± 2.1 ‰ | CBPI ([1]; 4% FBS, 4hrs, 25 µM): 1.9 ± 0.1 | MN (total number of micronuclei) ([1]; 4% FBS, 4hrs, 25 µM): 16.0 ± 2.8 ‰ | BN-MN (number of micronucleated cells) ([1]; 4% FBS, 4hrs, 50 µM): 18.0 ± 4.2 ‰ | Bridges ([1]; 4% FBS, 4hrs, 50 µM): 0.5 ± 0.7 ‰ | Buds ([1]; 4% FBS, 4hrs, 50 µM): 16.5 ± 0.7 ‰ | CBPI ([1]; 4% FBS, 4hrs, 50 µM): 1.8 ± 0.1 | MN (total number of micronuclei) ([1]; 4% FBS, 4hrs, 50 µM): 19.0 ± 4.2 ‰ | BN-MN (number of micronucleated cells) ([1]; 4% FBS, 4hrs, 100 µM): 23.5 ± 5.0* ‰ | Bridges ([1]; 4% FBS, 4hrs, 100 µM): 1.5 ± 0.7 ‰ | Buds ([1]; 4% FBS, 4hrs, 100 µM): 21.5 ± 2.1* ‰ | CBPI ([1]; 4% FBS, 4hrs, 100 µM): 1.9 ± 0.0 | MN (total number of micronuclei) ([1]; 4% FBS, 4hrs, 100 µM): 24.5 ± 5.0* ‰ | BN-MN (number of micronucleated cells) ([1]; 4% FBS, 24hrs, 25 µM): 18.5 ± 0.7 ‰ | Bridges ([1]; 4% FBS, 24hrs, 25 µM): 0.0 ± 0.0 ‰ | Buds ([1]; 4% FBS, 24hrs, 25 µM): 10.5 ± 2.1 ‰ | CBPI ([1]; 4% FBS, 24hrs, 25 µM): 1.9 ± 0.0 | MN (total number of micronuclei) ([1]; 4% FBS, 24hrs, 25 µM): 19.5 ± 0.7 ‰ | BN-MN (number of micronucleated cells) ([1]; 4% FBS, 24hrs, 50 µM): 26.0 ± 1.4* ‰ | Bridges ([1]; 4% FBS, 24hrs, 50 µM): 2.0 ± 0.0 ‰ | Buds ([1]; 4% FBS, 24hrs, 50 µM): 18.5 ± 2.1* ‰ | CBPI ([1]; 4% FBS, 24hrs, 50 µM): 1.7 ± 0.0 | MN (total number of micronuclei) ([1]; 4% FBS, 24hrs, 50 µM): 26.5 ± 0.7 ‰ | BN-MN (number of micronucleated cells) ([1]; 4% FBS, 24hrs, 100 µM): 39.0 ± 5.7* ‰ | Bridges ([1]; 4% FBS, 24hrs, 100 µM): 5.5 ± 0.7 ‰ | Buds ([1]; 4% FBS, 24hrs, 100 µM): 32.5 ± 5.0* ‰ | CBPI ([1]; 4% FBS, 24hrs, 100 µM): 2.0 ± 0.1 | MN (total number of micronuclei) ([1]; 4% FBS, 24hrs, 100 µM): 44.0 ± 1.4* ‰ | BN-MN (number of micronucleated cells) ([1]; 4% FBS, 48hrs, 25 µM): 20.5 ± 2.1 ‰ | Bridges ([1]; 4% FBS, 48hrs, 25 µM): 0.0 ± 0.0 ‰ | Buds ([1]; 4% FBS, 48hrs, 25 µM): 22.0 ± 4.2 ‰ | CBPI ([1]; 4% FBS, 48hrs, 25 µM): 1.9 ± 0.1 | MN (total number of micronuclei) ([1]; 4% FBS, 48hrs, 25 µM): 21.5 ± 2.1 ‰ | BN-MN (number of micronucleated cells) ([1]; 4% FBS, 48hrs, 50 µM): 32.0 ± 5.7* ‰ | Bridges ([1]; 4% FBS, 48hrs, 50 µM): 1.0 ± 0.0 ‰ | Buds ([1]; 4% FBS, 48hrs, 50 µM): 29.5 ± 2.1* ‰ | CBPI ([1]; 4% FBS, 48hrs, 50 µM): 1.8 ± 0.1 | MN (total number of micronuclei) ([1]; 4% FBS, 48hrs, 50 µM): 32.5 ± 6.4* ‰ | BN-MN (number of micronucleated cells) ([1]; 4% FBS, 48hrs, 100 µM): 40.0 ± 2.8* ‰ | Bridges ([1]; 4% FBS, 48hrs, 100 µM): 3.0 ± 1.4 ‰ | Buds ([1]; 4% FBS, 48hrs, 100 µM): 35.5 ± 3.5* ‰ | CBPI ([1]; 4% FBS, 48hrs, 100 µM): 1.7 ± 0.1 | MN (total number of micronuclei) ([1]; 4% FBS, 48hrs, 100 µM): 47.5 ± 3.5* ‰ | BN-MN (number of micronucleated cells) [1, 6]: 47.5 ± 3.5* | Bridges [1, 6]: 0 ± 0.0 | Buds [1, 6]: 42 ± 2.8 | CBPI [1, 6]: 1.9 ± 0.0 | MN (total number of micronuclei) [1, 6]: 51.0 ± 1.4* | BN-MN (number of micronucleated cells) [1, 7]: 63.5 ± 6.4* | Bridges [1, 7]: 0.5 ± 0.7 | Buds [1, 7]: 49 ± 1.4 | CBPI [1, 7]: 1.8 ± 0.1 | MN (total number of micronuclei) [1, 7]: 68.5 ± 5.0* | MN frequencies with 10% serum compared with 4% serum (in words) ([1]; 24 hr treatment): stronger effects | Lowest effective concentration (LOEC) in micronucleus experiments ([1]; Huh6): 50.0 µM | Lowest effective concentration (LOEC) in micronucleus experiments [2]: Negative | NOEC (highest no observable effect concentration tested) [2]: 500 µM | Lowest effective concentration (LOEC) in micronucleus experiments [3]: 300.0 (Knasmuller et al., 1999) μM | Lowest effective concentration (LOEC) in micronucleus experiments ([4]; ref Fowler et al., 2014): 2200.0 µM | Lowest effective concentration (LOEC) in micronucleus experiments ([4]; ref Katic et al., 2010): 250.0 µM | IARC classification [5]: Formation of guanine adducts, formation of DNA‐reactive metabolites which cause DNA‐adducts; activation: CYP1A2 and NAT; detoxification: GSTs and SULTs; IARC: Group 2A
